Reference: patent US11884661B2, “3-substituted propionic acids as αV integrin inhibitors” (BRISTOL-MYERS SQUIBB COMPANY, priority 2016, dated 2024)

Each molecule was assayed against T1, human αVβ6 (Homo sapiens, UniProt P06756+P18564) (assay: human αVβ6 HTRF binding assay). Conditions: recombinant human αVβ6 integrin, FITC-conjugated fibronectin.
T1 construct: purchased R & D systems 3817-AV
Method: All binding assays used the HTRF (homogeneous time resolved fluorescence) technology from Cisbio International, therefore all assays are described as HTRF binding assays. The assay results for the Examples are listed above together with the characterization data. The HTRF binding assays are established for the following integrins: human αVβ6, human αVβ1, human αVβ3, human αVβ5, and human αVβ8. All assays used the following assay buffer: 20 mM Tris, pH 7.4, 1 mM MgCl2, 1 mM MnCl2, 0.01% Tween 20, and 0.01% BSA. Alternatively, a SPA-based assay was used for evaluation of receptor binding.
The following describes the components and a representative procedure for the human αVβ6 HTRF binding assay: Recombinant human αVβ6 Integrin (R & D systems, 3817-AV) was biotinylated. Biotinylated human αVβ6 Integrin was added to assay vessel at a final concentration of 1.25 nM. FITC-conjugated fibronectin (Cytoskeleton, FNR02) was then added at the final concentration of 5 nM. The mixture was centrifuged at 600 rpm for three minutes using Thermo Fisher Heraeus Multifuge X3 centrifuge and then incubated at RT for an hour. Streptavidin Terbium (Cisbio international 610STLB) was then added at the final concentration of 0.625 nM. The resulting mixture was centrifuged at 600 rpm for three minutes using Thermo Fisher Heraeus Multifuge X3 centrifuge and then incubated at room temperature overnight in dark before reading HTRF signals.

T1 sequence (P06756 31-992 limits assumed): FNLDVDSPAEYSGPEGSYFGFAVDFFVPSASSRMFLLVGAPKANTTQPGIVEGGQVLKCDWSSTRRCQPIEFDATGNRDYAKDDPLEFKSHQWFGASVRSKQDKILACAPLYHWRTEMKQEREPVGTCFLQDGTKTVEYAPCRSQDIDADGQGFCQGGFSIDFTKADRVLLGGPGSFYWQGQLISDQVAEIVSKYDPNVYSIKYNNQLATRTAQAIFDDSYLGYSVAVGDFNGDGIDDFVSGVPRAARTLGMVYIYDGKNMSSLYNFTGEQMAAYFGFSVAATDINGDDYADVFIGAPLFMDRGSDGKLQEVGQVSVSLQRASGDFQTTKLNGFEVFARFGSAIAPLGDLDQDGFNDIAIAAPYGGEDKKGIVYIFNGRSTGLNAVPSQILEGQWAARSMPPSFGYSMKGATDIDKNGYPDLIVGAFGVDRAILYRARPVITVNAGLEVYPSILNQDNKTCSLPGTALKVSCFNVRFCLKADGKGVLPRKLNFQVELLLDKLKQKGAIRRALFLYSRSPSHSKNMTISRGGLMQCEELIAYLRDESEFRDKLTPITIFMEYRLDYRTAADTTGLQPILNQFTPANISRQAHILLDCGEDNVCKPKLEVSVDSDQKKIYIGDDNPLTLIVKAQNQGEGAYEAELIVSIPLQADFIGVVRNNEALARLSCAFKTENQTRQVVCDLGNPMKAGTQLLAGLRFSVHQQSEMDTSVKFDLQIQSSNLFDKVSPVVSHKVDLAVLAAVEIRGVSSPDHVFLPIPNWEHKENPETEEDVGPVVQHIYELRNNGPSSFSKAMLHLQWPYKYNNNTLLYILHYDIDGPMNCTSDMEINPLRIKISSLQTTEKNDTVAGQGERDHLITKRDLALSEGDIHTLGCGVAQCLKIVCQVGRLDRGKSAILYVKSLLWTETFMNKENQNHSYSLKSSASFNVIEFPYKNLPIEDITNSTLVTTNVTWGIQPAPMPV
T1 sequence (P18564 22-707 limits assumed): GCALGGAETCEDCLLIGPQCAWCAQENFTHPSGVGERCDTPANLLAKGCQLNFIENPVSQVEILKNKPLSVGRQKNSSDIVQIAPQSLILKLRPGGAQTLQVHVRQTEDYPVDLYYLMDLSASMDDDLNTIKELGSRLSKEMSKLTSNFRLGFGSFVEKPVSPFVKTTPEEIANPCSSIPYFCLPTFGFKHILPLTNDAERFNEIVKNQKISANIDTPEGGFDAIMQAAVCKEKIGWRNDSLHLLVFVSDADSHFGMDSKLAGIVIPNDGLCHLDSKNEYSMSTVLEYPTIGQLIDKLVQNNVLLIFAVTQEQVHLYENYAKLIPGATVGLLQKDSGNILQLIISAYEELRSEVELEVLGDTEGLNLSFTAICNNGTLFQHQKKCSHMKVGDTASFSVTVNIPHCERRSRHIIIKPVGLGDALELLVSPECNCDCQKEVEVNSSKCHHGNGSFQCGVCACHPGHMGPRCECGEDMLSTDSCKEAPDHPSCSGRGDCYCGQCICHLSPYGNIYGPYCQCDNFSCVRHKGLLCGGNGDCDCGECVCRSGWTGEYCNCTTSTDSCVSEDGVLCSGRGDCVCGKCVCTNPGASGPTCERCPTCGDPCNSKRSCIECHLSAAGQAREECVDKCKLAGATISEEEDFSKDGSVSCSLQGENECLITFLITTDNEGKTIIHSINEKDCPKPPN

Compound | IC50
O=C(NC(Cc1cnn(CCc2ccc3c(n2)NCCC3)c1)C(=O)O)OCc1ccccc1 (racemic) [Example 5, (±)-2-(((Benzyloxy)carbonyl)amino)-3-(1-(2-(5,6,7,8-tetrahydro-1,8-naphthyridin-2-yl)ethyl)-1H-pyrazol-4-yl)propanoic acid] | 5 µM
O=C(NC(Cc1cnn(CCCc2ccc3c(n2)NCCC3)c1)C(=O)O)OCc1ccccc1 (racemic) [Example 6, (±)-2-(((Benzyloxy)carbonyl)amino)-3-(1-(3-(5,6,7,8-tetrahydro-1,8-naphthyridin-2-yl)propyl)-1N-pyrazol-4-yl)propanoic acid] | 0.08 µM
COc1ccc(C(CC(=O)O)c2cc(CCCc3ccc4c(n3)NCCC4)c[nH]2)cc1F (racemic) [Example 10, (±)-3-(3-Fluoro-4-methoxyphenyl)-3-(4-(3-(5,6,7,8-tetrahydro-1,8-naphthyridin-2-yl)propyl)-1H-pyrrol-2-yl)propanoic acid] | 0.136 µM
CCCCOC(=O)NC(Cc1cnn(CCc2ccc3c(n2)NCCC3)c1)C(=O)O (racemic) [Example 23, (±)-2-((Butoxycarbonyl)amino)-3-(1-(2-(5,6,7,8-tetrahydro-1,8-naphthyridin-2-yl)ethyl)-1H-pyrazol-4-yl)propanoic acid] | 1.02 µM
COc1ccc(C(CC(=O)O)c2cnn(CCCc3ccc4c(n3)NCCC4)c2)cc1F (racemic) [Example 24, (±)-3-(3-Fluoro-4-methoxyphenyl)-3-(1-(3-(5,6,7,8-tetrahydro-1,8-naphthyridin-2-yl)propyl)-1H-pyrazol-4-yl)propanoic acid] | 0.117 µM
Cc1cc(C)c(S(=O)(=O)NC(Cc2cnn(CCCc3ccc4c(n3)NCCC4)c2)C(=O)O)c(C)c1 (racemic) [Example 25, (±)-3-(1-(3-(5,6,7,8-Tetrahydro-1,8-naphthyridin-2-yl)propyl)-1H-pyrazol-4-yl)-2-((2,4,6-trimethylphenyl)sulfonamido)propanoic acid] | 0.395 µM

The next lines start with the values.

IC50 | Compound
1.4 µM | Cc1ncc(C(CC(=O)O)n2nccc2CCC[C@@H]2CCc3cccnc3N2)cn1 (mixture of isomers) [Example 91, 3-(2-methylpyrimidin-5-yl)-3-(5-(3-((R)-1,2,3,4-tetrahydro-1,8-naphthyridin-2-yl)propyl)-1H-pyrazol-1-yl)propanoic acid]
6.7 µM | COc1ncc(C(CC(=O)O)n2nccc2CCC[C@H]2CCc3cccnc3N2)cn1 (mixture of isomers) [Example 92, 3-(2-methoxypyrimidin-5-yl)-3-(5-(3-((S)-1,2,3,4-tetrahydro-1,8-naphthyridin-2-yl)propyl)-1H-pyrazol-1-yl)propanoic acid]
1.03 µM | COc1ncc(C(CC(=O)O)n2nccc2CCC[C@@H]2CCc3cccnc3N2)cn1 (mixture of isomers) [Example 93, 3-(2-methoxypyrimidin-5-yl)-3-(5-(3-((R)-1,2,3,4-tetrahydro-1,8-naphthyridin-2-yl)propyl)-1H-pyrazol-1-yl)propanoic acid]
0.323 µM | COc1ccc(C(CC(=O)O)c2cnn(CCCc3ccc4c(n3)NCCC4)c2)cn1 (racemic) [Example 7, (±)-3-(6-Methoxypyridin-3-yl)-3-(1-(3-(5,6,7,8-tetrahydro-1,8-naphthyridin-2-yl)propyl)-1H-pyrazol-4-yl)propanoic acid]
0.1 µM | COc1ccc(C(CC(=O)O)c2cnn(CCCCc3ccc4c(n3)NCCC4)c2)cn1 (racemic) [Example 11, (±)-3-(6-Methoxypyridin-3-yl)-3-(1-(4-(5,6,7,8-tetrahydro-1,8-naphthyridin-2-yl)butyl)-1H-pyrazol-4-yl)propanoic acid]
0.064 µM | Cc1ncc(C(CC(=O)O)n2ccc(CCCc3ccc4c(n3)NCCC4)n2)cn1 (racemic) [Example 22, (±)-3-(2-Methylpyrimidin-5-yl)-3-(3-(3-(5,6,7,8-tetrahydro-1,8-naphthyridin-2-yl)propyl)-1H-pyrazol-1-yl)propanoic acid]
